# Values joined by “and” are separate entries in the source; they are usually repeats but may differ in a detail not shown here. Equal values may be shown once.
# Tests used:
# [1] = system: SDH C_S83G (strain Flu1); test: in vitro succinate: Q0/DCPIP activity test, purified mitochondria; format: biochemical, Mycosphaerella graminicola; settings: ratio IC50mutant/IC50WT, single determination
# Protocol: (§1) To explore the sensitivity profiles conferred by amino acid substitutions at the cellular and mitochondrial level, we determined sensitivity towards 4 different compounds for 26 of the identified substitution types both in vivo using liquid culture growth (AE media) and in vitro using purified mitochondria and the succinate: Q0/DCPIP activity test (Table 3). […] Resistance factors (RF) were determined as the ratio IC50mutant/IC50WT. […] Qp site mutations are well known to influence SDH enzyme activity and stability upon catalysis, [13], [38], [41].
# (§2) Strains were grown in 1 liter TSM40 units. Cultures were inoculated at 0.05 OD600 nm and grown on a reciprocal shaker (110 rpm, 22°C) for 5 days. Cells were harvested by vacuum filtration and disrupted in liquid nitrogen using a mortar and pestle. Resultant powder was re-suspended to 10% w/v in mitochondrial extraction buffer (10 mM KHPO4 pH7.2; 10 mM KCl, 10 mM MgCl2, 0.5 M sucrose, 0.2 mM EDTA, 2 mM PMSF). Extract was clarified by centrifugation (5,000 g, 4°C for 10 minutes, 2 times), intact mitochondria were then pelleted at 10,000 g for 20 minutes at 4°C. […] This volume was transferred to conical 1.5 ml tubes and re-centrifuged, 10,000 g for 10 minutes at 4°C. […] Mitochondrial suspensions were brought to a final concentration of 10 mg ml^−1 in extraction buffer and stored at −80°C until used.
# (§3) Mitochondrial suspensions were incubated at 30°C for 30 minutes in extraction buffer supplemented with 10 mM succinate prior to enzymatic measurements.
# (§4) A reaction plate was equilibrated for 10 minutes at 30°C before starting the reaction. DCPIP reduction was conducted at 30°C and monitored at 595 nm using a HTS7000 microtiterplate reader (Perkin Elmer). For calculations a molecular extinction coefficient of ε = 17 mM^−1 cm^−1 was used.
# (§5) Inhibitor concentrations ranged between 1 mM and 0.95 nM with uniform 4× dilution factor steps (11 inhibitor concentrations+DMSO control). 96 wells plates were pre equilibrated at reaction temperature (30°C) for 10 minutes before the reactions were started by the addition of 5 µl preactivated M. graminicola mitochondrial suspension. Calculated absorbance slopes (OD/hour) were used for IC50 calculations using Graphpad Prism 5.0 software non linear curve fitting against log inhibitor concentrations.
# [2] = system: SDH B_N225I (strain Flu7); test: as above; format: biochemical, Mycosphaerella graminicola; settings: ratio IC50mutant/IC50WT, single determination
# Protocol: as §1, §2, §3, §4, §5
# [3] = system: SDH D_D129T (strain Flu29); test: as above; format: biochemical, Mycosphaerella graminicola; settings: ratio IC50mutant/IC50WT, single determination, FR** (full resistance) = no sufficient inhibition detected at highest inhibitor concentration tested
# Protocol: as §1, §2, §3, §4, §5
# [4] = system: SDH B_N225H (strain Cbx106); test: as above; format: biochemical, Mycosphaerella graminicola; settings: ratio IC50mutant/IC50WT, single determination
# Protocol: as §1, §2, §3, §4, §5
# [5] = system: SDH B_S218F (strain Flu41); test: as above; format: biochemical, Mycosphaerella graminicola; settings: ratio IC50mutant/IC50WT, single determination
# Protocol: as §1, §2, §3, §4, §5
# [6] = system: SDH C_A84I (strain Flu21); test: as above; format: biochemical, Mycosphaerella graminicola; settings: ratio IC50mutant/IC50WT, single determination
# Protocol: as §1, §2, §3, §4, §5
# [7] = system: SDH B_R265P (strain Cbx56); test: as above; format: biochemical, Mycosphaerella graminicola; settings: ratio IC50mutant/IC50WT, single determination
# Protocol: as §1, §2, §3, §4, §5
# [8] = system: SDH B_H267Y (strain Cbx28); test: as above; format: biochemical, Mycosphaerella graminicola; settings: ratio IC50mutant/IC50WT, single determination
# Protocol: as §1, §2, §3, §4, §5
# [9] = system: SDH B_P220T (strain Flu110); test: as above; format: biochemical, Mycosphaerella graminicola; settings: ratio IC50mutant/IC50WT, single determination
# Protocol: as §1, §2, §3, §4, §5
# [10] = system: SDH C_H152R (strain Izm1); test: as above; format: biochemical, Mycosphaerella graminicola; settings: ratio IC50mutant/IC50WT, single determination
# Protocol: as §1, §2, §3, §4, §5
# [11] = system: SDH D_D129S (strain Cbx101); test: as above; format: biochemical, Mycosphaerella graminicola; settings: ratio IC50mutant/IC50WT, single determination
# Protocol: as §1, §2, §3, §4, §5
# [12] = system: SDH B_N271K (strain Flu33); test: as above; format: biochemical, Mycosphaerella graminicola; settings: ratio IC50mutant/IC50WT, single determination
# Protocol: as §1, §2, §3, §4, §5
# [13] = system: SDH B_I269V (strain Cbx1); test: as above; format: biochemical, Mycosphaerella graminicola; settings: ratio IC50mutant/IC50WT, single determination
# Protocol: as §1, §2, §3, §4, §5
# [14] = system: SDH C_T79I (strain Bos64); test: as above; format: biochemical, Mycosphaerella graminicola; settings: ratio IC50mutant/IC50WT, single determination
# Protocol: as §1, §2, §3, §4, §5
# [15] = system: SDH C_A84V (strain Flu4); test: as above; format: biochemical, Mycosphaerella graminicola; settings: ratio IC50mutant/IC50WT, single determination
# Protocol: as §1, §2, §3, §4, §5
# [16] = system: SDH B_H267L (strain Cbx29); test: as above; format: biochemical, Mycosphaerella graminicola; settings: ratio IC50mutant/IC50WT, single determination
# Protocol: as §1, §2, §3, §4, §5
# [17] = system: SDH B_H267N (strain Cbx96); test: as above; format: biochemical, Mycosphaerella graminicola; settings: ratio IC50mutant/IC50WT, single determination
# Protocol: as §1, §2, §3, §4, §5
# [18] = system: SDH C_N86K (strain Izm7); test: as above; format: biochemical, Mycosphaerella graminicola; settings: ratio IC50mutant/IC50WT, single determination
# Protocol: as §1, §2, §3, §4, §5
# [19] = system: SDH C_L85P (strain Cbx12); test: as above; format: biochemical, Mycosphaerella graminicola; settings: ratio IC50mutant/IC50WT, single determination
# Protocol: as §1, §2, §3, §4, §5
# [20] = system: SDH D_D129E (strain Cbx22); test: as above; format: biochemical, Mycosphaerella graminicola; settings: ratio IC50mutant/IC50WT, single determination
# Protocol: as §1, §2, §3, §4, §5
# [21] = system: SDH D_D129G (strain Cbx67); test: as above; format: biochemical, Mycosphaerella graminicola; settings: ratio IC50mutant/IC50WT, single determination
# Protocol: as §1, §2, §3, §4, §5
# [22] = system: SDH B_P220L (strain Flu75); test: as above; format: biochemical, Mycosphaerella graminicola; settings: ratio IC50mutant/IC50WT, single determination
# Protocol: as §1, §2, §3, §4, §5
# [23] = system: SDH B_H267Q (strain Bos59); test: as above; format: biochemical, Mycosphaerella graminicola; settings: ratio IC50mutant/IC50WT, single determination
# Protocol: as §1, §2, §3, §4, §5
# [24] = system: SDH C_V88D (strain Ol50); test: as above; format: biochemical, Mycosphaerella graminicola; settings: ratio IC50mutant/IC50WT, single determination
# Protocol: as §1, §2, §3, §4, §5
# [25] = molecular target: succinate dehydrogenase (SDH), WT (IPO323) (Zymoseptoria tritici (Mycosphaerella graminicola), UniProt F9X9V6+F9XG45+F9XH52); test: as above; format: biochemical; settings: ±S.E. (triplicate), read-out: IC50 in vitro
# Chain of succinate dehydrogenase (SDH), WT (IPO323) (F9XG45 entry or part of it): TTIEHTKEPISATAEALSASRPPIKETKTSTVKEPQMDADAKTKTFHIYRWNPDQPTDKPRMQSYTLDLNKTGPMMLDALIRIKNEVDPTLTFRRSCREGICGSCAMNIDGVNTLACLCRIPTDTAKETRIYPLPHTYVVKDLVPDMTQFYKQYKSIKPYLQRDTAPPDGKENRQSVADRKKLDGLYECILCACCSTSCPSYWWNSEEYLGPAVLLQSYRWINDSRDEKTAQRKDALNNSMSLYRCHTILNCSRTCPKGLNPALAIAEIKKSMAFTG
# Chain of succinate dehydrogenase (SDH), WT (IPO323) (F9X9V6 entry or part of it): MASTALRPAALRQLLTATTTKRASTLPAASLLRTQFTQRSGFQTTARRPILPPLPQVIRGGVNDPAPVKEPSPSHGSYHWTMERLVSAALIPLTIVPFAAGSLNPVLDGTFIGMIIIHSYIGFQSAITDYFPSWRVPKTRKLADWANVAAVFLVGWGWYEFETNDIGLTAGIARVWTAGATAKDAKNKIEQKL
# Chain of succinate dehydrogenase (SDH), WT (IPO323) (F9XH52 entry or part of it): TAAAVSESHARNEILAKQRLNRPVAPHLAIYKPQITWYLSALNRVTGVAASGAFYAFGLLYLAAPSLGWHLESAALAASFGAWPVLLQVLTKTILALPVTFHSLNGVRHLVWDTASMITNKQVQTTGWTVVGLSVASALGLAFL
# Protocol: as §1, §2, §3, §4, §5
# [26] = system: wild type IPO323 M. graminicola strain; format: cell-based, Mycosphaerella graminicola; settings: minimal concentration to fully inhibit growth of WT IPO323, AE agar, 10^7 cells, 2 weeks at 20°C in the dark
# Description: Selection plates were produced after adding 1% of a 100× DMSO solution of the active ingredients to pre-melted AE-agar.
smiles,measurement,setting,value
CC(C)C1C2CCC1c1c(NC(=O)c3cn(C)nc3C(F)F)cccc12 (centres unmarked) [Isopyrazam],Resistance Factors (RFs) in vitro,[1],38.6
same,Resistance Factors (RFs) in vitro,[2],7.0
same,Resistance Factors (RFs) in vitro,[3],4095 and 4095.5
same,Resistance Factors (RFs) in vitro,[4],15.7
same,Resistance Factors (RFs) in vitro,[5],18.2
same,Resistance Factors (RFs) in vitro,[6],8.1
same,Resistance Factors (RFs) in vitro,[7],88.3
same,Resistance Factors (RFs) in vitro,[8],142.6
same,Resistance Factors (RFs) in vitro,[9],1.8
same,Resistance Factors (RFs) in vitro,[10],95.0
same,Resistance Factors (RFs) in vitro,[11],82.5
same,Resistance Factors (RFs) in vitro,[12],89.5
same,Resistance Factors (RFs) in vitro,[13],3.6
same,Resistance Factors (RFs) in vitro,[14],56.4
same,Resistance Factors (RFs) in vitro,[15],3.1
same,Resistance Factors (RFs) in vitro,[16],3248.5
same,Resistance Factors (RFs) in vitro,[17],11.1
same,Resistance Factors (RFs) in vitro,[18],849.9
same,Resistance Factors (RFs) in vitro,[19],35.3
same,Resistance Factors (RFs) in vitro,[20],145.3
same,Resistance Factors (RFs) in vitro,[21],583.2
same,Resistance Factors (RFs) in vitro,[22],1.2
same,Resistance Factors (RFs) in vitro,[23],34.6
same,Resistance Factors (RFs) in vitro,[24],140.4
same,IC50,[25],5 ± 0.3 nM
same,Minimal selective concentration (MSC),[26],Isopyrazam 3 µM (MSC)

# From article PMC3334918, “Mutagenesis and Functional Studies with Succinate Dehydrogenase Inhibitors in the Wheat Pathogen Mycosphaerella graminicola” (PLoS ONE, 2012)
